ChEMBL document CHEMBL3046909, “C(18) acetylenic fatty acids of Ximenia americana with potential pesticidal activity” (J Agric Food Chem, 2000)
≈ marks a conversion by molar mass, not a printed value.

Columns and labels:
[1] = (§1) Toxicity in Artemia (brine shrimps) larvae; format: organism-based; settings: in vivo
[2] = tested on: Clavigralla tomentosicollis; experiment: Inhibition of hatching of Clavigralla tomentosicollis eggs in pods of cowpea at 4x10'4 ug/mL spray measured after 6 days; format: functional
Artemia = experiment: as §1; format: organism-based; settings: in vivo

Row | SMILES | LC50 [1] [µg/mL] | inhibition (INH) [2] [%] | Activity (Artemia)
1 | C/C=C/C=C/C#C/C=C\CCCCCCCCC(=O)O | 20 (≈ 72.9 µM) | 92 | –
2 | CC[C@H](CC[C@@H](C)[C@H]1CC[C@H]2[C@@H]3CC=C4C[C@@H](O)CC[C@]4(C)[C@H]3CC[C@]12C)C(C)C [BETA-SITOSTEROL] | – | – | Non-toxic
